Experimental data: US10189836B2, “Therapeutic compounds, compositions and methods of use thereof” (Genentech, Inc., priority 2015, dated 2019)

Assays:
[1] = target: isolated recombinant JAK2 kinase domain (Homo sapiens (Human), UniProt O60674); assay: JAK2 enzyme assay (Caliper LabChip, Ki); type: biochemical; details: isolated recombinant JAK2 kinase domain, 0.2 nM enzyme, ATP 25 μM
[2] = target: isolated recombinant JAK1 kinase domain (Homo sapiens (Human), UniProt P23458); assay: JAK1 enzyme assay (Caliper LabChip, Ki); type: biochemical; details: isolated recombinant JAK1 kinase domain, 1.5 nM enzyme, ATP 25 μM
Chain of isolated recombinant JAK1 kinase domain (P23458 875-1153): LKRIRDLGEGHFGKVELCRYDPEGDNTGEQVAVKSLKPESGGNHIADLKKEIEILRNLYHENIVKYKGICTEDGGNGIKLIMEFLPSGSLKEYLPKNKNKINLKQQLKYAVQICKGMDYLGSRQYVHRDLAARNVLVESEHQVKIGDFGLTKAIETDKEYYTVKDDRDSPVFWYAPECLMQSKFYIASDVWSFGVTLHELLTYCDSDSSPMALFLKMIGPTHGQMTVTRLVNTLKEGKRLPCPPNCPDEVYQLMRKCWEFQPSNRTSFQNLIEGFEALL

Chain of isolated recombinant JAK2 kinase domain (O60674 849-1124): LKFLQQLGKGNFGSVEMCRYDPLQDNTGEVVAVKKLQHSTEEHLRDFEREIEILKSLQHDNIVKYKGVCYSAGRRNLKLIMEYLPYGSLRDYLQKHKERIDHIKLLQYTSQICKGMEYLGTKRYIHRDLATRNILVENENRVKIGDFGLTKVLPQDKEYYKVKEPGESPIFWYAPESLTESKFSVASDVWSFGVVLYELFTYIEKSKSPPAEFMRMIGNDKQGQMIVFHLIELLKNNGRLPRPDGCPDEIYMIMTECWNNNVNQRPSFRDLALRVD

CN1CCN(C(=O)Cn2cc(Nc3nc4c(N5CC6CCC(C5)N6S(=O)(=O)c5cccc(F)c5)cccn4n3)cn2)CC1 [Example 156, 2-[4-[[8-[8-(3-fluorophenyl)sulfonyl-3,8-diazabicyclo[3.2.1]octan-3-yl]-[1,2,4]triazolo[1,5-a]pyridin-2-yl]amino]pyrazol-1-yl]-1-(4-methylpiperazin-1-yl)ethanone]
Ki [1]: 3.7 nM
Ki [2]: 1.3 nM

CN1CCN(C(=O)Cn2cc(Nc3nc4c(N5CC6CCC(C5)N6C(=O)C5CCSCC5)cccn4n3)cn2)CC1 [Example 52, 1-(4-methylpiperazin-1-yl)-2-[4-[[8-[8-(tetrahydrothiopyran-4-carbonyl)-3,8-diazabicyclo[3.2.1]octan-3-yl]-[1,2,4]triazolo[1,5-a]pyridin-2-yl]amino]pyrazol-1-yl]ethanone]
Ki [1]: 5.2 nM
Ki [2]: 3.1 nM

CN1CCN(C(=O)Cn2cc(Nc3nc4c(N5CC6CCC(C5)N6S(=O)(=O)Cc5cccc(Cl)c5)cccn4n3)cn2)CC1 [Example 165, 2-[4-[[8-[8-[(3-chlorophenyl)methylsulfonyl]-3,8-diazabicyclo[3.2.1]octan-3-yl]-[1,2,4]triazolo[1,5-a]pyridin-2-yl]amino]pyrazol-1-yl]-1-(4-methylpiperazin-1-yl)ethanone]
Ki [1]: 0.8 nM
Ki [2]: 0.4 nM

CN1CCN(C(=O)Cn2cc(Nc3nc4c(N5CC6CCC(C5)N6C(=O)C5CCC(F)(F)C5)cccn4n3)cn2)CC1 (centres unmarked) [Example 58, 2-[4-[[8-[8-(3,3-difluorocyclopentanecarbonyl)-3,8-diazabicyclo[3.2.1]octan-3-yl]-[1,2,4]triazolo[1,5-a]pyridin-2-yl]amino]pyrazol-1-yl]-1-(4-methylpiperazin-1-yl)ethanone]
Ki [1]: 2.5 nM
Ki [2]: 1.6 nM

CN1CCN(C(=O)Cn2cc(Nc3nc4c(N5CC6CCC(C5)N6S(=O)(=O)c5ccc(Cl)cc5F)cccn4n3)cn2)CC1 [Example 136, 2-[4-[[8-[8-(4-chloro-2-fluoro-phenyl)sulfonyl-3,8-diazabicyclo[3.2.1]octan-3-yl]-[1,2,4]triazolo[1,5-a]pyridin-2-yl]amino]pyrazol-1-yl]-1-(4-methylpiperazin-1-yl)ethanone]
Ki [1]: 6.2 nM
Ki [2]: 2 nM

CN1CCN(C(=O)Cn2cc(Nc3nc4c(N5CC6CCC(C5)N6Cc5ccccc5)cccn4n3)cn2)CC1 [Example 86, 2-[4-[[8-(8-benzyl-3,8-diazabicyclo[3.2.1]octan-3-yl)-[1,2,4]triazolo[1,5-a]alpyridin-2-yl]amino]pyrazol-1-yl]-1-(4-methylpiperazin-1-yl)ethanone]
Ki [1]: 105 nM
Ki [2]: 19.2 nM

CN1CCN(C(=O)Cn2cc(Nc3nc4c(N5CC6CCC(C5)N6C(=O)CC(C)(C)C(F)(F)F)cccn4n3)cn2)CC1 [Example 77, 4,4,4-trifluoro-3,3-dimethyl-1-[3-[2-[[1-[2-(4-methylpiperazin-1-yl)-2-oxo-ethyl]pyrazol-4-yl]amino]-[1,2,4]triazolo[1,5-a]pyridin-8-yl]-3,8-diazabicyclo[3.2.1]octan-8-yl]butan-1-one]
Ki [1]: 2.3 nM
Ki [2]: 1.7 nM

CN1CCN(C(=O)Cn2cc(Nc3nc4c(N5C[C@H]6CC[C@@H](C5)[C@H]6OCc5ccc(C#N)cc5)cccn4n3)cn2)CC1 [Example 128, 4-[[(1S,5R)-3-[2-[[1-[2-(4-methylpiperazin-1-yl)-2-oxo-ethyl]pyrazol-4-yl]amino]-[1,2,4]triazolo[1,5-a]pyridin-8-yl]-3-azabicyclo[3.2.1]octan-8-yl]oxymethyl]benzonitrile]
Ki [1]: 1 nM
Ki [2]: 0.4 nM

CN1CCN(C(=O)Cn2cc(Nc3nc4c(N5CC6CCC(C5)N6C(=O)N5CC(O)(C(F)(F)F)C5)cccn4n3)cn2)CC1 [Example 141, 2-[4-[[8-[8-[3-hydroxy-3-(trifluoromethyl)azetidine-1-carbonyl]-3,8-diazabicyclo[3.2.1]octan-3-yl]-[1,2,4]triazolo[1,5-a]pyridin-2-yl]amino]pyrazol-1-yl]-1-(4-methylpiperazin-1-yl)ethanone]
Ki [1]: 0.3 nM
Ki [2]: 0.2 nM

CN1CCN(C(=O)Cn2cc(Nc3nc4c(N5C[C@H]6CC[C@@H](C5)[C@H]6N(C)CCC(F)(F)F)cccn4n3)cn2)CC1 [Example 127, 1-(4-methylpiperazin-1-yl)-2-[4-[[8-[(1S,5R)-8-[methyl(3,3,3-trifluoropropyl)amino]-3-azabicyclo[3.2.1]octan-3-yl]-[1,2,4]triazolo[1,5-a]pyridin-2-yl]amino]pyrazol-1-yl]ethanone]
Ki [1]: 11.5 nM
Ki [2]: 4.6 nM

CN1CCN(C(=O)Cn2cc(Nc3nc4c(N5CC6CCC(C5)N6C(=O)c5cccs5)cccn4n3)cn2)CC1 [Example 76, 1-(4-methylpiperazin-1-yl)-2-[4-[[8-[8-(thiophene-2-carbonyl)-3,8-diazabicyclo[3.2.1]octan-3-yl]-[1,2,4]triazolo[1,5-a]pyridin-2-yl]amino]pyrazol-1-yl]ethanone]
Ki [1]: 1.3 nM
Ki [2]: 0.8 nM

CN1CCN(C(=O)Cn2cc(Nc3nc4c(N5CC6CCCC(C5)N6C(=O)CCC(F)(F)F)cccn4n3)cn2)CC1 [Example 4, 4,4,4-trifluoro-1-[3-[2-[[1-[2-(4-methylpiperazin-1-yl)-2-oxo-ethyl]pyrazol-4-yl]amino]-[1,2,4]triazolo[1,5-a]pyridin-8-yl]-3,9-diazabicyclo[3.3.1]nonan-9-yl]butan-1-one]
Ki [1]: 0.8 nM
Ki [2]: 0.5 nM

CN1CCN(C(=O)Cn2cc(Nc3nc4c(N5C[C@H]6CC[C@@H](C5)[C@H]6OCc5ccncc5)cccn4n3)cn2)CC1 [Example 144, 1-(4-methylpiperazin-1-yl)-2-[4-[[8-[rac-(1S,5R)-8-(4-pyridylmethoxy)-3 - azabicyclo[3.2.1]octan-3-yl]-[1,2,4]triazolo[1,5-a]pyridin-2-yl]amino]pyrazol-1-yl]ethanone]
Ki [2]: 0.8 nM

CN1CCN(C(=O)Cn2cc(Nc3nc4c(N5CC6CCC(C5)N6C(=O)C5(C#N)CCCC5)cccn4n3)cn2)CC1 [Example 155, 1-[3-[2-[[1-[2-(4-methylpiperazin-1-yl)-2-oxo-ethyl]pyrazol-4-yl]amino]-[1,2,4]triazolo[1,5-a]pyridin-8-yl]-3,8-diazabicyclo[3.2.1]octane-8-carbonyl]cyclopentane-carbonitrile]
Ki [1]: 21 nM

CN1CCN(C(=O)Cn2cc(Nc3nc4c(N5CC6COCC(C5)N6C(=O)CCC(F)(F)F)cccn4n3)cn2)CC1 [Example 130, 4,4,4-trifluoro-1-[7-[2-[[1-[2-(4-methylpiperazin-1-yl)-2-oxo-ethyl]pyrazol-4-yl]amino]-[1,2,4]triazolo[1,5-a]pyridin-8-yl]-3-oxa-7,9-diazabicyclo[3.3.1]nonan-9-yl]butan-1-one]
Ki [1]: 26.6 nM

CN1CCN(C(=O)Cn2cc(Nc3nc4c(N5CC6CCC(C5)N6CCCC(F)(F)F)cccn4n3)cn2)CC1 [Example 73, 1-(4-methylpiperazin-1-yl)-2-[4-[[8-[8-(4,4,4-trifluorobutyl)-3,8-diazabicyclo[3.2.1]octan-3-yl]-[1,2,4]triazolo[1,5-a]pyridin-2-yl]amino]pyrazol-1-yl]ethanone]
Ki [2]: 8.8 nM

CN1CCN(C(=O)Cn2cc(Nc3nc4c(N5C[C@H]6CC[C@@H](C5)[C@H]6NCCC(F)(F)F)cccn4n3)cn2)CC1 [Example 145, 1-(4-methylpiperazin-1-yl)-2-(4-((8-((1R,5 S,8r)-8-((3,3,3-trifluoropropyl)amino)-3-azabicyclo[3.2.1]octan-3-yl)-[1,2,4]triazolo[1,5-a]pyridin-2-yl)amino)-1H-pyrazol-1-yl)ethanone]
Ki [2]: 1.3 nM

Cc1ccc(CO[C@H]2[C@@H]3CC[C@H]2CN(c2cccn4nc(Nc5cnn(CC(=O)N6CCN(C)CC6)c5)nc24)C3)cn1 [Example 151, 1-(4-methylpiperazin-1-yl)-2-[4-[[8-[rac-(1S,5R)-8-[(6-methyl-3-pyridyl)methoxy]-3-azabicyclo[3.2.1]octan-3-yl]-[1,2,4]triazolo[1,5-a]pyridin-2-yl]amino]pyrazol-1-yl]ethanone]
Ki [2]: 0.6 nM

CN1CCN(C(=O)Cn2cc(Nc3nc4c(C5=CC6CCC(C5)N6C(=O)CCC(F)(F)F)cccn4n3)cn2)CC1 (centres unmarked) [Example 18, 4,4,4-trifluoro-1-[3-[2-[[1-[2-(4-methylpiperazin-1-yl)-2-oxo-ethyl]pyrazol-4-yl]amino]-[1,2,4]triazolo[1,5-a]pyridin-8-yl]-8-azabicyclo[3.2.1]oct-3-en-8-yl]butan-1-one]
Ki [2]: 1.5 nM

CN1CCN(C(=O)Cn2cc(Nc3nc4c(N5CC6CCC(C5)N6C(=O)c5ccccc5)cccn4n3)cn2)CC1 [Example 70, 2-[4-[[8-(8-benzoyl-3,8-diazabicyclo[3.2.1]octan-3-yl)-[1,2,4]triazolo[1,5-a]pyridin-2-yl]amino]pyrazol-1-yl]-1-(4-methylpiperazin-1-yl)ethanone]
Ki [2]: 4.2 nM

CN1CCN(C(=O)Cn2cc(Nc3nc4c(C5=CC6CCC(C5)N6C(=O)CCC(F)(F)F)cccn4n3)cn2)CC1 (centres unmarked) [Example 13, 4,4,4-trifluoro-1-[3-[2-[[1-[2-(4-methylpiperazin-1-yl)-2-oxo-ethyl]pyrazol-4-yl]amino]-[1,2,4]triazolo[1,5-a]pyridin-8-yl]-8-azabicyclo[3.2.1]oct-3-en-8-yl]butan-1-one]
Ki [2]: 0.9 nM

CN1CCN(C(=O)Cn2cc(Nc3nc4c(N5CC6CCC(C5)N6C(=O)C5CC6C(C5)C6(F)F)cccn4n3)cn2)CC1 (centres unmarked) [Example 57, 2-[4-[[8-[8-(6,6-difluorobicyclo[3.1.0]hexane-3-carbonyl)-3,8-diazabicyclo[3.2.1]octan-3-yl]-[1,2,4]triazolo[1,5-a]pyridin-2-yl]amino]pyrazol-1-yl]-1-(4-methylpiperazin-1-yl)ethanone]
Ki [2]: 4.8 nM

CN1CCN(C(=O)Cn2cc(Nc3nc4c(N5C[C@H]6CC[C@@H](C5)[C@@H]6OCc5ccncc5)cccn4n3)cn2)CC1 [Example 189, 1-(4-methylpiperazin-1-yl)-2-(4-((8-((1R,5 S,8s)-8-(pyridin-4-ylmethoxy)-3-azabicyclo[3.2.1]octan-3-yl)-[1,2,4]triazolo[1,5-a]pyridin-2-yl)amino)-1H-pyrazol-1-yl)ethanone]
Ki [2]: 0.5 nM
